# Patent US12611453B2, “Method of inducing an HIV-1-specific immune response using a chimpanzee adenovirus vector encoding an hivacat t-cell immunogen and TLR7 agonist” (Gilead Sciences, Inc., priority 2019, dated 2026)
# Assays:
# Type in all cases: in vitro ADME
# [1] = biological target: cytochrome P450 (CYP) 3A4 enzyme (CYP3A) (Homo sapiens, UniProt P08684); assay: in vitro metabolism by cytochrome P450 3A4
# From the text: (§1) Any ART agents known to inhibit or induce CYP3A, P-glycoprotein, or breast cancer resistance protein are excluded from use in this study during treatment (Period 1). For those participants who may be on a regimen including one of these medications, a regimen switch from one of the prohibited medication to an allowed medication is permitted between the screening and baseline visits. The following agents are excluded from the ART regimen during the study: HIV protease inhibitors (including low-dose ritonavir), cobicistat-containing regimens, elvitegravir, efavirenz, etravirine, and nevirapine.
# CYP2C8 = biological target: T1, CYP2C8 (Homo sapiens, UniProt P10632); assay: in vitro metabolism by CYP2C8
# T1 sequence (P10632 1-490): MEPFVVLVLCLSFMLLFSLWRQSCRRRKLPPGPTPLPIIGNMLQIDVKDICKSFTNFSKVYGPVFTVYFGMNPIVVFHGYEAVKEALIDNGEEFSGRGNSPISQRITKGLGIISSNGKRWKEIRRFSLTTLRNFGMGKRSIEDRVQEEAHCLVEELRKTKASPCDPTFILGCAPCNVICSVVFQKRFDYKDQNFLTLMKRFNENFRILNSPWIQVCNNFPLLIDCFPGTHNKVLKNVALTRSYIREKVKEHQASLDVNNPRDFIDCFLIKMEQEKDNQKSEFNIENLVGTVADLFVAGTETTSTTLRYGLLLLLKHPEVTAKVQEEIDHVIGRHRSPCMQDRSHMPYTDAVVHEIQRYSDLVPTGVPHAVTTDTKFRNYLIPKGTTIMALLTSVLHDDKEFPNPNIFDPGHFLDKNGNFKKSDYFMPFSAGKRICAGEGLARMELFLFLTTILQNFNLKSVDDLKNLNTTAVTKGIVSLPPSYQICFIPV
# From the text: as §1
# CYP2D6 = CYP2D6 (Homo sapiens, UniProt P10635); assay: in vitro metabolism by CYP2D6
# Sequence of CYP2D6 (P10635 whole entry): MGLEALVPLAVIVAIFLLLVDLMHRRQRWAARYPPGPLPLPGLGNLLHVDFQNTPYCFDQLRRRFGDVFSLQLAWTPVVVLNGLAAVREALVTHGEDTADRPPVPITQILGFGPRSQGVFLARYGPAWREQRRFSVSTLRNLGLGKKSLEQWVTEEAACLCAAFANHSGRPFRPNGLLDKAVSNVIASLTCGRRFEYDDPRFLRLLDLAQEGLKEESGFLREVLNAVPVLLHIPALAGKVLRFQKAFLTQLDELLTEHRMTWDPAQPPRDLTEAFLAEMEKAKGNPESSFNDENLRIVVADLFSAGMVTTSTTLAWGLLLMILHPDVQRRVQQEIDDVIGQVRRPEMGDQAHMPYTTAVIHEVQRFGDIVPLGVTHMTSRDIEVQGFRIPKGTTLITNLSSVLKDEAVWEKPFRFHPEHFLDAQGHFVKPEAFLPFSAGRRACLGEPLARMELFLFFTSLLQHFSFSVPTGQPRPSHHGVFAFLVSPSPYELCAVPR
# P-glycoprotein = P-glycoprotein (Homo sapiens, UniProt P08183); assay: in vitro P-glycoprotein substrate assessment
# Sequence of P-glycoprotein (P08183 whole entry): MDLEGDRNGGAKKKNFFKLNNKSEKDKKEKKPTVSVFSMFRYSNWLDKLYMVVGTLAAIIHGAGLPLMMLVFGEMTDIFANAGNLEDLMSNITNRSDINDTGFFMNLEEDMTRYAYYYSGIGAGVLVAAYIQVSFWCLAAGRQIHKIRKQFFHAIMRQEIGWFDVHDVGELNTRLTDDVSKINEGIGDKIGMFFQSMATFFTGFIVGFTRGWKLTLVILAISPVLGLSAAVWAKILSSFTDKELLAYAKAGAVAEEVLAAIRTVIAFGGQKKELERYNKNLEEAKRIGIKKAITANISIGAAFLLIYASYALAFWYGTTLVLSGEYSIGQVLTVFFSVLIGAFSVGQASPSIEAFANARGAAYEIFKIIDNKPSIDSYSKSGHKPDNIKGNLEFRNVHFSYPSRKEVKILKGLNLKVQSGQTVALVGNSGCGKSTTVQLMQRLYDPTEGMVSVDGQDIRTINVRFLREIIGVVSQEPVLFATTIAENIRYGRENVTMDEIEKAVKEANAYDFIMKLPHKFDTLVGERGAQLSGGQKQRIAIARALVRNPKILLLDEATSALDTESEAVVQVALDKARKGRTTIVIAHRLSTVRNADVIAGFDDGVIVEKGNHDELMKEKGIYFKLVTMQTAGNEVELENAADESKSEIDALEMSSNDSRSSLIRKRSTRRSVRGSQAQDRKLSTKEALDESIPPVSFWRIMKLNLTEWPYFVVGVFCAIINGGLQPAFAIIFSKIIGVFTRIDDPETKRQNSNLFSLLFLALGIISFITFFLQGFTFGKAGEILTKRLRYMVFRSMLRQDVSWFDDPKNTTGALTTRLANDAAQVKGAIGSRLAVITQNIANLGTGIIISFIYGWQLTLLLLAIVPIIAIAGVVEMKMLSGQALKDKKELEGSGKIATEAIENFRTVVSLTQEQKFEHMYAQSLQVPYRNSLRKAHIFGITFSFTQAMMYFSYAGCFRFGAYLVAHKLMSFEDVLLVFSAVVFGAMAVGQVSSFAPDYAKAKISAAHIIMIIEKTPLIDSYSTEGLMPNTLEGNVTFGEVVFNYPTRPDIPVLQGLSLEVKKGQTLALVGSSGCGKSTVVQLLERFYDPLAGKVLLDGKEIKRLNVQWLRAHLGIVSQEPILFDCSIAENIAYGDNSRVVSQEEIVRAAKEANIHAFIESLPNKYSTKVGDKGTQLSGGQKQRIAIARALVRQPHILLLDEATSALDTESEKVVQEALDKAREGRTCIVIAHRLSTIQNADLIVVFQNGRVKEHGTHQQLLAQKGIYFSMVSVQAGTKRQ
# From the text: as §1
# [2] = biological target: T2, breast cancer resistance protein (Homo sapiens, UniProt Q9UNQ0); assay: in vitro breast cancer resistance protein substrate assessment
# T2 sequence (Q9UNQ0 1-655): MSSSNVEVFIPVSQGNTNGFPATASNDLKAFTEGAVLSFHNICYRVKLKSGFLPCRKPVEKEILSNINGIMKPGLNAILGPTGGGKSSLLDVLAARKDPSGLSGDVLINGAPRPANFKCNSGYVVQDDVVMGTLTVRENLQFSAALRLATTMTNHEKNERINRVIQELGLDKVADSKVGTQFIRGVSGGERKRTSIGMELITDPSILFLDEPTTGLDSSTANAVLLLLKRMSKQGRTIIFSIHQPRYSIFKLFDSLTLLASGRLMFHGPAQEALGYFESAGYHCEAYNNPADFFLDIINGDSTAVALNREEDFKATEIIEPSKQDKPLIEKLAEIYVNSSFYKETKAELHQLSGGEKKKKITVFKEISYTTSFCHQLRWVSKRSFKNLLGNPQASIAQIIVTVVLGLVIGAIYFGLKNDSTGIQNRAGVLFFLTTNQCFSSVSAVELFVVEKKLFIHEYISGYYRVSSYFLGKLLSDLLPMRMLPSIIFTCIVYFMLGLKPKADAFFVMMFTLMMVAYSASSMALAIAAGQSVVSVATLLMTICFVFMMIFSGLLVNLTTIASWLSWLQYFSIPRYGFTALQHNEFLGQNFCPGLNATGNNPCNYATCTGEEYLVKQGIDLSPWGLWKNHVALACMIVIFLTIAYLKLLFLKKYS
# From the text: as §1
# Sequence of cytochrome P450 (CYP) 3A4 enzyme (CYP3A) (P08684 whole entry): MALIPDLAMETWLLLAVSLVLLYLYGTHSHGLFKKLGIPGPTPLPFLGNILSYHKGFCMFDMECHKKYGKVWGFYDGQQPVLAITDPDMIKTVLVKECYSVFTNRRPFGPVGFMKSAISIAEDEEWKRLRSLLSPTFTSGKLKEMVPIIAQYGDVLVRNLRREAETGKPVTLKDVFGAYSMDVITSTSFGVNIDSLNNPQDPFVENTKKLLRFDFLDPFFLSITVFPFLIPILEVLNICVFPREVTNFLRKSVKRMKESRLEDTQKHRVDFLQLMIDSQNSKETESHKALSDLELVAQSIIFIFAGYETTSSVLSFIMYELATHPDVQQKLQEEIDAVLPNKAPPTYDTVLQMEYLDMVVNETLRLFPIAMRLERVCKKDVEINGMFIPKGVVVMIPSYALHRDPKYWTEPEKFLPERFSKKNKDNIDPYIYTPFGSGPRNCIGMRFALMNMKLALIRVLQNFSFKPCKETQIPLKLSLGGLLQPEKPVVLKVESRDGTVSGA
smiles,measurement,setting,value
CCCCOc1nc(N)c2c(n1)N(Cc1cccc(CN3CCCC3)c1)CC(=O)N2 [compound of Formula (I)],metabolism by CYP3A4 (contribution to metabolism),[1],predominantly metabolized
same,metabolism by CYP2C8 (contribution to metabolism),CYP2C8,minor contributions
same,metabolism by CYP2D6 (contribution to metabolism),CYP2D6,minor contributions
same,substrate of P-glycoprotein,P-glycoprotein,substrate
same,substrate of breast cancer resistance protein,[2],substrate
